Entries after “also recorded” stand apart in the source; their conditions may differ.
Tests used:
E. coli K12 [1] = test: Membrane polarisation (DiSC3 fluorescence); assay type: cell-based, Escherichia coli K12; conditions: 10 μM COE1-5C; 0, 1.75 or 3.5% (v/v) 1-butanol
Procedure: Cultures of E. coli K12 grown in LB broth were harvested at late log phase and diluted to 5×10^5 cfu ml. Cells were centrifuged at 5000×g for 5 min and washed in phosphate buffered saline (PBS). The process was repeated three times and the pellet finally resuspended in PBS. Two-hundred μl of the cell suspension were inoculated into 96 well plates, 2 μL of the depolarization detecting probe 3,3-diethylthiodicarbocyanine (DiSC3) iodide was added to the treatment wells and to half of these, 10 μM COE1-5C. The cells were allowed to incubate for around 30 min and the fluorescence intensity at 670 nm was measured after excitation at 620 nm until a stable base line was reached. Zero, 1.75, or 3.5% (v/v) 1-butanol was added to the test well and the increase in fluorescence intensity was taken at 1 min intervals (Ex=λ620, Em=Δ670) as a bottom reading with optimal gain to determine the degree of membrane polarization. Buffer, dye, and COE1-5C blanks were monitored and the data corrected accordingly.

E. coli K12 cells = test: Modified microbial adhesion to hydrocarbon (MATH) test; assay type: cell-based, Escherichia coli K12
Procedure: To test for cell surface modifications brought about by COE1-5C that might affect hydrophobicity, E. coli K12 cells treated with COE1-5C (10 μM) were tested for their affinity for either the butanol or aqueous phase against an untreated control. The tendency of E. coli to partition into the butanol phase or remain in the aqueous phase was assessed optically by measuring the reduction in turbidity (OD600) of tubes containing a saturated mixture of butanol (1.5 ml) and buffer (18.5 ml). The tests were carried out with appropriate blanks and both positive and negative controls. MATH tests were carried out in triplicate and expressed as the quotient of the difference between the OD600 at the start and […] and the OD600 at the […].

E. coli K12 [2] = test: Butanol challenge, microdilution growth test; assay type: cell-based, Escherichia coli K12 (ATTC 10798); conditions: for protective effect on growth under butanol challenge: 0 to 3.5% (v/v) butanol, DSSN+ 5 μM
Procedure: Butanol challenge was assessed by using a microdilution format modified standard toxicity test based on the method described by Wiegand et al (I. Wiegand, K. Hilpert, R. E. W. Hancock, Nat. Protocols 2008, 3, 163-175). Cultures of E. coli K12 (ATTC 10798) grown in LB broth were harvested at late log phase and diluted to 1×10^6 cfu ml. One hundred μl of the suspension were inoculated into 96 well plates with each well containing an equal volume of LB broth and spiked with the following concentrations of 1-butanol: […] in a 96 well plate achieving a final inoculum density of 5×10^5 and a final butanol concentration of 0, 0.85, 1.75, and 3.5% (v/v). Tests were run in triplicate with and without COE1-5C (10 μM) and DSSN+ (5 μM) using the appropriate sterility and growth controls. Specific growth rates were expressed as an average of all replicates.

[3] = Single molecule tracking of DHPE-Atto647N in supported lipid bilayer; set-up: species or system E. coli; conditions: for effect on MSD / bilayer stiffness (comparison of OPV COEs): no butanol, OPV COE final concentration 1 μM (FIG. 4)
Procedure: SLB formation, MIM treatment: A 3 mg/ml chloroform solution of total E. coli lipid extract (Avanti Polar Lipids, Alabaster, Ala.) was mixed with DHPE-Atto647N (Atto-Tec, Slegen, Germany) to 0.001% mol in a round bottom flask produce large unilamellar vesicles (LUVs). Chloroform was evaporated using a rotary evaporator for 2 hours at 65° C. The lipid film was resuspended in 10 mM HEPES and 150 mM NaCl, pH 7.4, vortexed for 10 min and sonicated in a bath sonicator until a clear solution was obtained. One hundred μl of such a prepared LUVs solution were deposited in a custom made plastic holder, glued to a coverslip, and incubated for 60 min at 65° C. Prior to use, coverslips were cleaned by 30 min sonication in 2% Hellmanex (Hellma Analytics, Millheim, Germany), followed by thorough rinsing with deionized (DI) water. Un-fused vesicles were removed by 10× washing with 400 μl of 10 mM Hepes, 150 mM NaCl, 3 mM EDTA, pH 7.4 buffer. Calculated volumes of COE1-5C, DSSN+, DSBN+ and 4F-DSBN+ (0.1 mM) were added directly to the chamber to final concentrations of 1 μM, mixed and allowed to equilibrate for 5 min prior to measurement.
Data acquisition: For total internal reflection microscopy (TIRF) imaging, a modified Nikon Eclipse TE2000U TIRF setup was used, equipped with a 100× 1.49NA objective (Nikon, Japan). Laser light from a 638 nm LED laser was passed through a 660LP dichromic mirror (Chroma Technology Corp, Bellows Falls, Vt.) and used for sample illumination under the TIR angle. Emitted light was filtered using a 738/75 […] and collected on a back-illuminated EMCCD camera chip (Andor iXON897, 512x512px, Andor Technology, USA). For each condition, 4 to 6 datasets of 4000 frames at 97 fps were collected from different regions of the membrane. Immobile particles and contaminants were bleached prior to measurement.
Data analysis: A Mosaic Particle Tracker ImageJ plugin was used to localize the centroid of single molecule signals and link them to trajectories. TrackArt software was used to filter spurious trajectories and extract mean square displacements and diffusion coefficients. […] The slowly-diffusing population occurs most likely due to marker interaction with the surface.

E. coli K12 [4] = test: Toxicity tests (minimum inhibitory concentration); assay type: cell-based, Escherichia coli K12
Description: Relative toxicities of DSSN+ and DSBN+ are positively correlated with the extent of mismatch between the length of the hydrophobic molecular backbone and bilayer thickness. Membrane insertion of the shorter, 3-ringed DSBN+ thinned the membrane more than the 4-ringed DSSN+, perturbing it to a greater extent, and was correspondingly more toxic. In this example, the objective is to mitigate the toxic effect of organic solvents on biological membranes. To avoid synergistic membrane disruption in systems containing both MIMs and solvents, MIMs that were the least likely to perturb membranes, that is, DSSN+×(which was previously shown to maintain the natural thickness of membranes) and COE1-5C, were selected. The insertion of COE1-5C, whose molecular length (≈5 nm) is greater than the thickness of the bilayer (≈4 nm), would be expected to initiate membrane perturbation because of hydrophobic mismatch. However, positive hydrophobic mismatch perturbs lipid bilayers less than instances of negative mismatch—where the length of the insertion molecules is shorter than the thickness of the bilayer. The experimental concentration of COE1-5C used in this study (10 μM) is much lower than its minimum inhibitory concentration (MIC). […] This is considerably greater than for DSSN+, DSBN+ and 4F-DSBN+, further supporting the hypothesis that membrane thinning is a potent toxicity determinant. […]

## C[N+](C)(C)CCCCCCN(CCCCCC[N+](C)(C)C)c1ccc(C=Cc2ccc(C=Cc3ccc(C=Cc4ccc(C=Cc5ccc(N(CCCCCC[N+](C)(C)C)CCCCCC[N+](C)(C)C)cc5)cc4)cc3)cc2)cc1.[I-].[I-].[I-].[I-] [COE1-5C]
E. coli K12 [1]
  membrane depolarization by butanol: mitigated the depolarization efficiency of butanol
E. coli K12 cells; 10 μM COE1-5C
  tendency of treated cells to partition into the butanol phase relative to untreated cells: less than half that of untreated cells
E. coli K12 cells; E. coli K12 treated with 10 μM COE1-5C, butanol/buffer partitioning, OD600
  MATH value: 0.17 (±0.027)
E. coli K12 [2]; COE1-5C 10 μM
  protective effect on growth under butanol challenge: increased the growth rate of E. coli K12 in all instances of butanol challenge; also recorded: mitigates the toxic effect of butanol
E. coli K12 [2]; 3.5% v/v butanol
  growth rate of treated cells relative to untreated cells (fold): threefold increase
  growth rate relative to a control: about 13%
E. coli K12 [2]; 3.5% v/v butanol, COE1-5C 10 μM, listed as conjugated oligo-electrolyte
  specific growth rate: 0.095 h⁻¹
E. coli K12 [2]; 3.5% v/v butanol, listed as OPV COE
  growth rate of treated cells relative to untreated cells (fold): three times
E. coli K12 [2]; 3.5% v/v butanol, listed as conjugated oligo-electrolyte
  growth rate of treated cells relative to untreated cells (fold): 3
[3]; 0% (v/v) butanol
  reduction in MSD of membrane marker: 62%
[3]; 10 μM COE1-5C, 0.85, 1.75, 3.50% v/v butanol (FIG. 2)
  diffusion coefficients in model membranes versus control: much lower than in control systems
[3]; 0.85% (v/v) butanol
  reduction in MSD of membrane marker: 38%
[3]; 1.75% (v/v) butanol
  reduction in MSD of membrane marker: 22%
[3]; 3.5% v/v butanol
  reduction in MSD of membrane marker: 15%
[3]
  effect on MSD / bilayer stiffness (comparison of OPV COEs): increased bilayer stiffness to the greatest degree
E. coli K12 [4]
  minimum inhibitory concentration (MIC): 128 µM

## C[N+](C)(C)CCCCCCN(CCCCCC[N+](C)(C)C)c1ccc(/C=C/c2c(F)c(F)c(/C=C/c3ccc(N(CCCCCC[N+](C)(C)C)CCCCCC[N+](C)(C)C)cc3)c(F)c2F)cc1.[I-].[I-].[I-].[I-] [4F-DSBN+, reference compound]
[3]
  effect on MSD / bilayer stiffness (comparison of OPV COEs): stiffened the least amount

## C[N+](C)(C)CCCCCCN(CCCCCC[N+](C)(C)C)c1ccc(/C=C/c2ccc(/C=C/c3ccc(N(CCCCCC[N+](C)(C)C)CCCCCC[N+](C)(C)C)cc3)cc2)cc1.[I-].[I-].[I-].[I-] [DSBN+, reference compound]
[3]
  effect on MSD / bilayer stiffness (comparison of OPV COEs): to a lesser degree than the five-ringed structure

## C[N+](C)(C)CCCCCCN(CCCCCC[N+](C)(C)C)c1ccc(/C=C/c2ccc(/C=C/c3ccc(/C=C/c4ccc(N(CCCCCC[N+](C)(C)C)CCCCCC[N+](C)(C)C)cc4)cc3)cc2)cc1.[I-].[I-].[I-].[I-] [DSSN+, reference compound]
E. coli K12 [2]; COE1-5C 10 μM
  protective effect on growth under butanol challenge: no protective effect; also recorded: no growth of E. coli K12 was observed
E. coli K12 [2]; COE1-5C 10 μM, listed as DSSN^+
  protective effect on growth under butanol challenge: do not
[3]
  effect on MSD / bilayer stiffness (comparison of OPV COEs): to a lesser degree than the five-ringed structure

— patent publication US20170226541A1, “METHOD OF IMPROVING SOLVENT TOLERANCE IN MICROBES” (Nanyang Technological University, priority 2014, published 2017)
